According to patent publication EP4707289A1, “STEROID-CATIONIC LIPID COMPOUND AND USE THEREOF” (priority 2023, dated 2024):

Test system: IL-6
Settings: three-component LNP based on the compound, SARS-CoV-2 antigen mRNA, 30 µg intramuscular; compared with four-component LNP of ALC-0315; FIG. 4

Row | Compound | expression levels of the systemic inflammatory factor IL-6
1 | CCCCCCCCC(CCCCCC)C(=O)OCCCCCCN(CCCCO)CCCCCCOC(=O)O[C@H]1CC[C@@]2(C)C(=CC[C@H]3[C@@H]4CC[C@H]([C@H](C)CCCC(C)C)[C@@]4(C)CC[C@@H]32)C1 (stereo partly drawn) [Compound 1] | significantly reduced
2 | CCCCCCCCC(CCCCCC)C(=O)OCCCCCCN(CCCCCCOC(=O)O[C@H]1CC[C@@]2(C)C(=CC[C@H]3[C@@H]4CC[C@H]([C@H](C)CCCC(C)C)[C@@]4(C)CC[C@@H]32)C1)CCCn1ccnc1 (stereo partly drawn) [Compound 6] | significantly reduced
3 | CCCCCCCCC(CCCCCC)C(=O)OCCCCCCN(CCCn1ccnc1)CCOC(=O)O[C@H]1CC[C@@]2(C)C(=CC[C@H]3[C@@H]4CC[C@H]([C@H](C)CCCC(C)C)[C@@]4(C)CC[C@@H]32)C1 (stereo partly drawn) [Compound 11] | significantly reduced
